The text below walks through data of patent publication US5866570A, “Treatment of vascular leakage and related syndrome such as septic shock by administration of metalloproteinase inhibitors” (Wisconsin Alumni Research Foundation, priority 1994, dated 1999).

In brackets after ≈: the same amount, converted by molar mass.

One data set relates to BALB/C mice. Nature of the data set: septic shock induced by galactosamine and endotoxin (E. coli 026:B6). Format: in vivo. As to the method: Ten BALB/C mine were injected i.p. with 18 mg of D-galactosamine and 1 μg of endotoxin. Three units of heparin were given i.v. and 10 units heparin were given subcutaneously at 30 min to prevent intravascular coagulation.
Ten BALB/C mice were treated with razoxane (100 μg/g body weight i.p., dissolved in 1% carboxymethyl-cellulose in normal saline). The mice were then injected i.p. with 18 mg of D-galactosamine and 1 μg of endotoxin. Three units of heparin were given i.v. and 10 units heparin were given subcutaneously to each mice at 30 min.

A further data set relates to mouse-embryo fibroblasts. The conditions noted are these: cited from earlier work.
For data set [1] the following is noted: at 25° C.; cited from earlier work.
Data set [2] concerns the target T1, E. coli recombinant human 72 kD collagenase type IV (MMP-2), pAPMA activated (Homo sapiens, UniProt P08253).
T1 construct: made in house; host or cells: E. coli
T1 sequence (P08253 110-660): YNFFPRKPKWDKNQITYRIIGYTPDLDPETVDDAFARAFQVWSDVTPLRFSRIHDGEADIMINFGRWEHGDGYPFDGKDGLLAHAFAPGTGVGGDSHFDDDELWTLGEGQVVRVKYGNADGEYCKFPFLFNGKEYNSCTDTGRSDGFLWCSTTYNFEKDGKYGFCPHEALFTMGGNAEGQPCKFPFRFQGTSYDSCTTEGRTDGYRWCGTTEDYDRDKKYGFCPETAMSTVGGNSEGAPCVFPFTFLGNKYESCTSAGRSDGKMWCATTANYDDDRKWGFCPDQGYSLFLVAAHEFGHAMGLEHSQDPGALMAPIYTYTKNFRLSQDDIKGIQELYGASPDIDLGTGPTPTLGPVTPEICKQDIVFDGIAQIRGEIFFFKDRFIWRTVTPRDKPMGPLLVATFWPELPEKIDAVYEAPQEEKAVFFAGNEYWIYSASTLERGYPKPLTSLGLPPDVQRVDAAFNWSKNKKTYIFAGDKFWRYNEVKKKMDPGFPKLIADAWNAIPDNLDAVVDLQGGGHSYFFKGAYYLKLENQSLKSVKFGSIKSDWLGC
The data set can be described thus: gelatinase assay (3H-gelatin degradation), Example 9. Format: biochemical. The conditions noted are these: 100 ng activated enzyme, 4 hrs preincubation with inhibitor at 37° C., 3H-gelatin substrate; read-out: IC50, inhibition of collagenase type IV gelatinase activity. The text has this: Type IV collagenases are highly efficient in digesting gelatin. Inhibition of the gelatinase activity of human recombinant collagenase type IV was used as an initial assay for testing the bis(dioxopiperazine)s. The recombinant 72 kD collagenase IV used in the gelatinase assays was made in E. coli from a cDNA insert obtained from Dr. William Stetler-Stevenson (NCI). The protein runs at 72 kD on SDS-PAGE, has gelatinolytic activity in zymogram, is activated by pAPMA, is precipitated by a monoclonal anti-peptide antibody to the pro-region of the 72 kD enzyme, and is inhibited by TIMP-2. Rat tail ^3 H-collagen I (Dupont-NEN) is denatured to become gelatin by heating at 60° C. for 20 min. E. coli recombinant human 72 kD collagenase type IV is activated by incubation with 1 mM pAPMA for 1 hr. at 37° C. 100 ng of activated enzyme is added to each tube containing 50 mM Tris-HCl pH 7.5, 5 mM CaCl2 and 0.005% Brij-35 and pre-incubated with inhibitor or solvent control for 4 hrs. at 37° C. in a total of 25 μl. 10,000 cpm of ^3 H-gelatin substrate in 30 μl is added (final volume of 55 μl per sample) and the reaction mixture is incubated at 37° C. for 2 to 16 hrs. […] Enzyme activity is calculated from the radioactivity in the supernatant and activity of the compounds expressed as percent solvent control.

[3] abbreviates: galactosamine + endotoxin1 (E. coli 026:B6).

Take `CC(CN1CC(=O)NC(=O)C1)N1CC(=O)NC(=O)C1` (stereo not shown) [razoxane]: in the data set on BALB/C mice (setting [3]), the “Survival/Total Ratio after 24 h” value is recorded as 2/10, the “Survival/Total Ratio after 48 h” value was 2/10 and the “Survival/Total Ratio after 72 h” value was 2/10. In the data set with BALB/C mice (razoxane 100 μg/g i.p. before 18 mg D-galactosamine + 1 μg endotoxin i.p., heparin), the “mice surviving more than 24 h” value is reported as “Two out of ten”. Also, the “IC50, inhibition of [3H]thymidine incorporation” value with mouse-embryo fibroblasts was 0.5 µg/mL. Moreover, in data set [1], the solubility in water is 3000 µg/mL (≈ 11.2 mM).

By IC50 is commonly meant the concentration needed to halve the response being measured. In the case of `CC1(C)O[C@H]2C[C@H](N3CC(=O)NC(=O)C3)[C@@H](N3CC(=O)NC(=O)C3)C[C@@H]2O1` (relative stereo) [Compound 80, (3aα, 5β, 6α, 7aβ)-4,4'-(hexahydro-2,2-dimethyl-1,3-benzodioxole-5,6-diyl)bis(2,6-piperazinedione)], in data set [2], the IC50 is 8 µM.
